ChEMBL document CHEMBL6127158, “Novel Aminopyrazole Inhibitors of PDE11A for the Treatment of Alzheimer's Disease and Other Types of Dementia” (ACS Med Chem Lett, 2024)
The source made the active and inactive calls. The calls are words filed in the database; no cut-off is given here.

Target: Dual 3',5'-cyclic-AMP and -GMP phosphodiesterase 11A (Homo sapiens) (UniProt Q9HCR9)
Assay: Inhibition of recombinant N-terminal GST-tagged human PDE11A4 (1 to 943 residues) expressed in Sf9 cells at 500 nM using cGMP and cAMP as substrates by Ba(OH)2 precipitation method relative to control

Sequence of Dual 3',5'-cyclic-AMP and -GMP phosphodiesterase 11A (Homo sapiens) (Q9HCR9 whole entry, looked up, the tested form may be a part): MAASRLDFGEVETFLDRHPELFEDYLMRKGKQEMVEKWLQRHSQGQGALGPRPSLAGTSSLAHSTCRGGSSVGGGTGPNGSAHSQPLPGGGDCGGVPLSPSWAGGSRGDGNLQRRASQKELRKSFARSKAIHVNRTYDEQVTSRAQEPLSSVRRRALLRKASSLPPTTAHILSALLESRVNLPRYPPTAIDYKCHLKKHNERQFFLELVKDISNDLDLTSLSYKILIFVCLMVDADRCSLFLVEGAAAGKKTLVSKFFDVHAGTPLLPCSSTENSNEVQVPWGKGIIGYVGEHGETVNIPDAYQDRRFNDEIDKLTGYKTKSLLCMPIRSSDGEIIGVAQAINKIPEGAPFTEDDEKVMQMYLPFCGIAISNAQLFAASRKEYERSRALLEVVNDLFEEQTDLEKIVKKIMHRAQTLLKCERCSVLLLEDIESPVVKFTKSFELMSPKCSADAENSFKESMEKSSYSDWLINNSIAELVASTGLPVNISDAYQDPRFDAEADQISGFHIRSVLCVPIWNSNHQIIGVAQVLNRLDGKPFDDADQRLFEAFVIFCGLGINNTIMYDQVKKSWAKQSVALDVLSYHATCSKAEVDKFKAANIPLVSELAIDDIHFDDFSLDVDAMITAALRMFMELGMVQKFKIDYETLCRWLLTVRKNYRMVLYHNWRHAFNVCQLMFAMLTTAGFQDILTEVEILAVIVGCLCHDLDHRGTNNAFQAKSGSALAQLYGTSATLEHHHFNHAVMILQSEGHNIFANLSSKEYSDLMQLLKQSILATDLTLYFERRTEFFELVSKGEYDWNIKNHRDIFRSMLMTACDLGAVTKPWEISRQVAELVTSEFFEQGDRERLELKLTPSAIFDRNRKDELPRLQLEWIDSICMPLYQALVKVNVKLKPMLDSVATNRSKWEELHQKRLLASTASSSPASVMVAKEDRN

Row | Compound | inhibition
1 | CCN(CC)C(=O)c1cc(-c2ccnn2C)nc2c1c(C)nn2-c1ccc(Cl)c(F)c1 | 51%
2 | CCN(CC)C(=O)c1ccnc2c1c(C)nn2-c1ccccc1 | inactive
3 | Cc1nn(-c2ccccc2)c2nc(-c3cccs3)cc(C(=O)N3CCCC3)c12 | 1%
